Results reported in PubChem BioAssay AID1963429 (Molecular Pharmacology Branch, DTP, NCI, 2024).
“And” between values parts separate entries of the source, which are not always exact repeats. Equal entries are not always repeated.

Test system: 126254-015-R-J1-PDC complex spheroid growth, % test/control
Assay: Anticancer human tumor 126254-015-R-J1-PDC patient-derived soft tissue sarcoma cell line growth inhibition [Asc]
Settings: for viability, T/C: stronger effect = lower value
Protocol: Multicellular complex tumor spheroid response to apoptosis pathway targeting inhibitors Alrizomadlin, Pelcitoclax, and Dasminapant in combination with a variety of drugs and investigational agents in selected tumor cell lines
The MDM2 inhibitor alrizomadlin, the Bcl-2/Bcl-xL inhibitor pelcitoclax, and the IAPs inhibitor dasminapant were evaluated both individually and in combination with standard of care and investigational anticancer small molecules within a complex spheroid model of solid tumors. . Complex spheroids include a stromal component modeled by human endothelial cells (HUVEC) and fibroblasts modeled by human mesenchymal stem cells (MSCs). The concentration ranges selected for each drug and investigational agent were based upon clinically achievable concentrations if the clinical Cmax of the agent was known.
Compounds. The drugs and investigational agents: alrizomadlin (APG-115; NSC831270), pelcitoclax (APG-1252; NSC835773), dasminapant (APG-1387;NSC834197), TAK-243 (NSC785004), copanlisib (NSC809693), olaparib (NSC753686), talazoparib (NSC767125), cobimetinib (NSC 768068), eltanexor (KPT-8602, NSC 794443), abemaciclib (NSC 768073), sotorasib (NSC818433), adagrasib (NSC 831453), MRTX-1133 (NSC 836407), Iadademestat (ORY1001, NSC 806812), and RMC-4630 (NSC839698), were obtained from the NCI Developmental Therapeutics Program Chemical Repository. The FDA-approved anticancer drug set is available from the Developmental Therapeutics Program at https://dtp.cancer.gov/organization/dscb/obtaining/available plates.htm. […] The stock solutions were prepared in dimethyl sulfoxide (DMSO, Sigma-Aldrich, St. Louis, MO, cat. D2650) at 800-fold the tested concentration and stored at -70 degrees C prior to their use. All drugs and investigational agents were tested over a range starting from a high concentration at or near the clinical Cmax and decreasing in half-log increments. If the clinical Cmax for an agent had not been determined, the highest concentration tested was 10 microM.
The patient-derived cancer (PDC) cell lines include five colon adenocarcinomas: 186277-243-T-J2-PDC, 616215-338-R-J1-PDC, 439559-082-T-J2-PDC, 463943-066-T-J2-PDC, and 519858-162-T-J1-PDC; three pancreatic carcinomas: 323965-272-R-J2-PDC, 521955-158-R6-J3-PDC, and 521955-158-R2-J5-PDC; two uterine sarcomas: 327498-152-R-J2-PDC and 993429-296-R-J1-PDC; two rhabdomyosarcomas: 755483-174-R-J1-PDC and 772245-204-R-J1-PDC; two soft tissue sarcomas: 126254-015-R-J1-PDC and 494315-158-R-J1-PDC; two malignant fibrous histiocytomas: 317291-083-R-J1-PDC and 596521-263-R-J1-PDC; two breast carcinomas: 171881-019-R-J1-PDC and 885512-296-R-J2-PDC; and one ovarian carcinoma: 6556581-035-R-J-PDC were obtained from the NCI PDMR, (https://pdmr.cancer.gov). The established cell lines HSSY-2 synovial sarcoma (RRID:CVCL 8719), SYO-1 synovial sarcoma (RRID:CVCL_7146), MPNST malignant peripheral neural sheath tumor were obtained from the Sloan Kettering Institute. The following established cell lines were purchased from the American Type Culture Collection (ATCC, Manassas, VA), Sor the received from the NCI repository:, PANC-1 pancreatic carcinoma (CRL-1469, RRID:CVCL_0480), OVCAR-5 ovarian carcinoma (RRID:CVCL_1628), OVCAR-8 ovarian carcinoma (RRID:CVCL_1629), , MCF-7 breast carcinoma (CRL-12584, RRID:CVCL_0031), MDA-MB-231 breast carcinoma (CRL-12532, RRID:CVCL_0062), NCI-H1876 small cell lung carcinoma (CRL-5902, RRID:CVCL_1503), NCI-H510A small cell lung carcinoma (HTB-184, RRID:CVCL_1565), NCI-H1417 (CRL-5869, RRID:CVCL_1469), and NCI-H196 small cell lung carcinoma (CRL-5823, RRID:CVCL_1509). Dr. Peter Houghton (Greehey Children's Cancer Research Institute, University of Texas Health Science Center, San Antonio, TX) provided Rh-18 rhabdomyosarcoma (RRID:CVCL_1659). Pooled donor human umbilical vein endothelial cells (HUVEC, Lonza, cat. CC-2519) and human mesenchymal stem cells (hMSC, Lonza, cat. PT-2501) were purchased from Lonza (Walkersville, MD).
Cell Culture. […]
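Note: spheroids exposed to compound for seven days.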
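Throughout, for viability, T/C: 100% = DMSO vehicle control wells.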

| SMILES | IC50 (curve of compound) | viability, T/C (compound 0.0316 µM) | viability, T/C (compound 0.1 µM) | viability, T/C (compound 0.316 µM) | viability, T/C (compound 1 µM) | viability, T/C (compound 0.00316 µM) | viability, T/C (compound 0.01 µM) | also measured |
| --- | --- | --- | --- | --- | --- | --- | --- | --- |
| C=C(F)C(=O)N1CCN(c2nc(OCC3CCCN3C)nc3c2CCN(c2cccc4cccc(Cl)c24)C3)CC1CC#N (stereo not given) | 2450 nM and 2800 nM and 4360 nM | 92% and 107% and 106% | 96.8% and 102% and 95.5% | 94% and 110% and 105% | 92.7% and 106% and 93.5% | – | – | viability, T/C (compound 3.16 µM): 37.7% and 43.4% and 69.6%; viability, T/C (compound 10 µM): 0.22% and 0.29% and 0.24% |
| CCN1CCN(Cc2ccc(Nc3ncc(F)c(-c4cc(F)c5nc(C)n(C(C)C)c5c4)n3)nc2)CC1 | > 1000 nM | 109% (2×) and 99% | 94.1% and 103% and 115% | 114% and 110% and 112% | 110% and 102% and 112% | 99.2% and 102% (2×) | 104% and 97% and 96.8% | – |
| COc1c(OCCCN2CCOCC2)ccc2c3n(c(=NC(=O)c4cnc(N)nc4)nc12)CCN3 | 53.6 nM and 52.5 nM and 76 nM | 60.5% and 65.2% and 66.9% | 37.3% and 29.9% and 45.1% | 16.1% and 17.7% and 24.1% | 9.83% and 12.4% and 16.3% | 98.8% and 93% and 88.2% | 87.4% and 90.6% and 95.3% | – |
| Cc1nc(N2CCC3(CC2)COC(C)C3N)c(CO)nc1Sc1ccnc(N)c1Cl (stereo not given) | > 3000 nM and 1260 nM and 1510 nM | – | – | – | – | – | – | viability, T/C (compound 0.00949 µM): 94.9% and 93.9% and 98.2%; viability, T/C (compound 0.03 µM): 103% and 83.5% and 93.7%; viability, T/C (compound 0.0949 µM): 86.2% and 84% and 84.9%; viability, T/C (compound 0.3 µM): 84.7% and 73.4% and 69.1%; viability, T/C (compound 0.949 µM): 76.9% and 51.7% and 54.3%; viability, T/C (compound 3 µM): 50.1% and 41.1% and 43.9% |
| Cn1ncnc1[C@H]1c2n[nH]c(=O)c3cc(F)cc(c23)N[C@@H]1c1ccc(F)cc1 | > 100 nM | 91.6% and 90% and 79.6% | 80.9% and 89.7% and 70.5% | – | – | 90.9% and 91% and 86.1% | 80.1% and 88.7% and 90.3% | viability, T/C (compound 0.000316 µM): 93.2% and 98% and 104%; viability, T/C (compound 0.001 µM): 95.6% and 106% and 103% |
| NC(=O)C(=Cn1cnc(-c2cc(C(F)(F)F)cc(C(F)(F)F)c2)n1)c1cncnc1 | 49.9 nM and 45.6 nM and 121 nM | – | – | – | – | – | – | viability, T/C (compound 0.000949 µM): 104% and 107% and 110%; viability, T/C (compound 0.003 µM): 92.3% and 94% and 104%; viability, T/C (compound 0.00949 µM): 86.1% and 82.2% and 93.2%; viability, T/C (compound 0.03 µM): 63.4% and 58.5% and 84.6%; viability, T/C (compound 0.0949 µM): 33.2% and 34.4% and 57.5%; viability, T/C (compound 0.3 µM): 13.9% and 15.5% and 19.8% |
| NC1CCC(NC2CC2c2ccccc2)CC1 (stereo not given) | > 100 nM | 90.3% and 85.1% and 100% | 84.9% and 93% and 96.2% | – | – | 96.5% and 88.6% and 98% | 92.1% and 90.5% and 103% | viability, T/C (compound 0.000316 µM): 96.7% and 95.9% and 95.3%; viability, T/C (compound 0.001 µM): 87.1% and 102% and 107% |
| O=C(c1ccc(F)c(F)c1Nc1ccc(I)cc1F)N1CC(O)([C@@H]2CCCCN2)C1 | 699 nM and 755 nM and > 1000 nM | 102% (2×) and 93.1% | 91.6% and 90.3% and 101% | 66.5% and 70.8% and 78.6% | 42.6% and 42.9% and 55.1% | 103% and 94.5% and 96.1% | 109% (2×) and 105% | – |

Further lines, with some results ahead:

| IC50 (curve of compound) | SMILES | viability, T/C (compound 0.0316 µM) | viability, T/C (compound 0.1 µM) | viability, T/C (compound 0.316 µM) | viability, T/C (compound 1 µM) | viability, T/C (compound 0.00316 µM) | viability, T/C (compound 0.01 µM) | also measured |
| --- | --- | --- | --- | --- | --- | --- | --- | --- |
| > 10000 nM | C=CC(=O)N1CCN(c2nc(=O)n(-c3c(C)ccnc3C(C)C)c3nc(-c4c(O)cccc4F)c(F)cc23)C(C)C1 (stereo not given) | 93.4% and 99.9% and 105% | 106% and 97.6% and 110% | 107% and 115% and 109% | 102% and 111% and 112% | – | – | viability, T/C (compound 3.16 µM): 120% and 116% and 110%; viability, T/C (compound 10 µM): 88.8% and 91% and 102% |
| > 3000 nM | CCN1C(C(=O)NC23CCC(C(=O)O)(CC2)CC3)C(c2cccc(Cl)c2F)C2(C(=O)Nc3cc(Cl)ccc32)C12CCCCC2 (stereo not given) | – | – | – | – | – | – | viability, T/C (compound 0.00949 µM): 105% and 96.1%; viability, T/C (compound 0.03 µM): 95.4% [middle of 15 runs]; viability, T/C (compound 0.0949 µM): 96.8% [middle of 15 runs]; viability, T/C (compound 0.3 µM): 93.5% [middle of 15 runs]; viability, T/C (compound 0.949 µM): 96.8% [middle of 15 runs]; IC50 (compound alone, run of 09/27/2022): > 3000 nM |
| > 1000 nM and 845 nM | CNC(C)C(=O)NC1CN(S(=O)(=O)c2cccc(S(=O)(=O)N3CCC4CCC(C(=O)NC(c5ccccc5)c5ccccc5)N4C(=O)C(NC(=O)C(C)NC)C3)c2)CCC2CCC(C(=O)NC(c3ccccc3)c3ccccc3)N2C1=O (stereo not given) | 76.6% [middle of 15 runs] | 64.3% [middle of 15 runs] | 59.9% [middle of 15 runs] | 55.5% [middle of 15 runs] | 94.8% and 99.9% | 86.8% [middle of 15 runs] | IC50 (compound alone, run of 10/03/2022): > 1000 nM |
| > 10000 nM | O=C(c1cc(Cc2n[nH]c(=O)c3ccccc23)ccc1F)N1CCN(C(=O)C2CC2)CC1 | 95.9% and 107% and 96.9% | 93.1% and 96.8% and 103% | 88.4% and 102% (2×) | 86.6% and 93.3% and 97.7% | – | – | viability, T/C (compound 3.16 µM): 79.3% and 83.1% and 87.7%; viability, T/C (compound 10 µM): 64.2% and 68.1% and 68.5% |
